# Results as given in US20170022171A1, “2,5-DISUBSTITUTED CYCLOPENTANECARBOXYLIC ACIDS AND THEIR USE” (Bayer Pharma Aktiengesellschaft, priority 2014, published 2017).
# Assays:
# Assay type in all cases: biochemical
# MMP-13 = target: T1, MMP-13 (Homo sapiens, UniProt P45452); assay: In vitro MMP-13 inhibition test
# T1 construct: purchased R&D Systems 511-MP
# Excerpt: (§1) The MMP-mediated amidolytic cleavage of a suitable peptide substrate leads to an increase in fluorescent light here too. The signal intensity of the fluorescent light is directly proportional to the enzyme activity. The active concentration of a test compound at which half the enzyme is inhibited (50% signal intensity of the fluorescent light) is reported as the IC50 value.
# (§2) Recombinant MMP-13 (from R&D Systems, 511-MP) is chemically activated in accordance with the manufacturer's instructions using APMA. 1 μl of the test compound to be analysed (as a solution in DMSO, suitable concentrations, for example, 1 nM to 30 μM) is pipetted into 24 μl of activated enzyme (final concentration, for example, 0.1 nM) in reaction buffer (50 mM Tris/HCl pH 7.5, 10 mM CaCl2, 150 mM NaCl, 0.05% Brij®-35) in a white 384-hole microtiter plate (MTP). The enzymatic reaction is started by adding the intramolecularly quenched Mca-Pro-Leu-Gly-Leu-Dpa(Dnp)-Ala-Arg-NH2 substrate (final concentration, for example, 10 μM; R&D Systems, ES-001), so as to result in a total test volume of 50 The course of the MMP-13 reaction is measured by measuring the fluorescence intensity (excitation 320 nm, emission 410 nm) over a suitable period of time (for example over 120 min at a temperature of 32° C.).
# MMP-14 = target: T2, MMP-14 (Homo sapiens, UniProt P50281); assay: In vitro MMP-14 inhibition test
# T2 construct: purchased R&D Systems 918-MP
# Excerpt: as §1
# (§3) Recombinant MMP-14 (from R&D Systems, 918-MP) is enzymatically activated in accordance with the manufacturer's instructions using recombinant furin (from R&D Systems, 1503-SE). 1 μl of the test compound to be analysed (as a solution in DMSO, suitable concentrations e.g. 1 nM to 30 μM) is pipetted into 24 μl of activated enzyme (final concentration e.g. 0.5 nM) in reaction buffer (50 mM Tris/HCl pH 7.5, 10 mM CaCl2, 150 mM NaCl, 0.05% Brij®-35) in a white 384-hole microtiter plate (MTP). The enzymatic reaction is started by adding the intramolecularly quenched Mca-Lys-Pro-Leu-Gly-Leu-Dpa(Dnp)-Ala-Arg-NH2 substrate (final concentration, for example, 5 μM; R&D Systems, ES-010), so as to result in a total test volume of 50 The course of the MMP-14 reaction is measured by measuring the fluorescence intensity (excitation 320 nm, emission 410 nm) over a suitable period of time (for example over 120 min at a temperature of 32° C.).
# MMP-16 = target: T3, MMP-16 (Homo sapiens, UniProt P51512); assay: In vitro MMP-16 inhibition test
# T3 construct: purchased R&D Systems 1785-MP
# T3 sequence (P51512 120-564 limits assumed): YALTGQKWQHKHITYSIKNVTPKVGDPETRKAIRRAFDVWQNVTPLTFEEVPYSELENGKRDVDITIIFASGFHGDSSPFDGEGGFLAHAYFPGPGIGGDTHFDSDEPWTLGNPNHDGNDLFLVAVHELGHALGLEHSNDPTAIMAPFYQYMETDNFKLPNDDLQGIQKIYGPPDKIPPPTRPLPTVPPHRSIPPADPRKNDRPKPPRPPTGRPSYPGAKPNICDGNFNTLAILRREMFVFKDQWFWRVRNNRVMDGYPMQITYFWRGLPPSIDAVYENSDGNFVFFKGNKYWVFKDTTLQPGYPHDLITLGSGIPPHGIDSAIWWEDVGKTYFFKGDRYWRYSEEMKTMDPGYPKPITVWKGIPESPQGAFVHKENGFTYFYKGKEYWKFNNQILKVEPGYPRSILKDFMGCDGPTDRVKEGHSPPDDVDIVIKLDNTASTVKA
# Excerpt: as §1
# as §3, with “MMP-16” for “MMP-14”, “1785-MP)” for “918-MP)”, “1” for “0.5”
# mouse MMP-9 = target: T4, mouse MMP-9 (Mus musculus, UniProt P41245); assay: In vitro mouse MMP-9 inhibition test
# T4 construct: purchased R&D Systems 909-MP
# T4 sequence (P41245 108-730): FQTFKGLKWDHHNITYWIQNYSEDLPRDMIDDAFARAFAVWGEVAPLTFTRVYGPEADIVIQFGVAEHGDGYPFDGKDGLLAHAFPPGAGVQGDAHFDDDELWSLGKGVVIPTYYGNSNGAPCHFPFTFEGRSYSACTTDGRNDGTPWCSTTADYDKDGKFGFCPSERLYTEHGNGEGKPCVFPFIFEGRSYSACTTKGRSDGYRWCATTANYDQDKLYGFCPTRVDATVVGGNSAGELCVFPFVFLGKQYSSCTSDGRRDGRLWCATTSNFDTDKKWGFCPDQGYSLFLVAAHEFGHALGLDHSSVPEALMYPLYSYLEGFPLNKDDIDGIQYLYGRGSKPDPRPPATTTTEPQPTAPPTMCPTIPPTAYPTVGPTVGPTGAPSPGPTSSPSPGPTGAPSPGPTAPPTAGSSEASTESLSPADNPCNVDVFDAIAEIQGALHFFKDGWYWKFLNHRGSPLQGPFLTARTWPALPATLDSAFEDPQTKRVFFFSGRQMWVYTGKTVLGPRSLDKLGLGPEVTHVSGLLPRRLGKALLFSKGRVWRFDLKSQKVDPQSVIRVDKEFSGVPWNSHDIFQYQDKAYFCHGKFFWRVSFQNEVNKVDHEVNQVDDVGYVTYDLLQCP
# Excerpt: as §1
# as §2, with “Recombinant mouse MMP-9” for “Recombinant MMP-13”, “Systems, 909-MP)” for “Systems, 511-MP)”, “example, 5” for “example, 10”, “the MMP-9” for “the MMP-13”
# mouse MMP-12 = target: T5, mouse MMP-12 (Mus musculus, UniProt P34960); assay: In vitro mouse MMP-12 inhibition test (standard or high-sensitivity)
# T5 construct: purchased R&D Systems 3467-MP
# T5 sequence (P34960 110-473): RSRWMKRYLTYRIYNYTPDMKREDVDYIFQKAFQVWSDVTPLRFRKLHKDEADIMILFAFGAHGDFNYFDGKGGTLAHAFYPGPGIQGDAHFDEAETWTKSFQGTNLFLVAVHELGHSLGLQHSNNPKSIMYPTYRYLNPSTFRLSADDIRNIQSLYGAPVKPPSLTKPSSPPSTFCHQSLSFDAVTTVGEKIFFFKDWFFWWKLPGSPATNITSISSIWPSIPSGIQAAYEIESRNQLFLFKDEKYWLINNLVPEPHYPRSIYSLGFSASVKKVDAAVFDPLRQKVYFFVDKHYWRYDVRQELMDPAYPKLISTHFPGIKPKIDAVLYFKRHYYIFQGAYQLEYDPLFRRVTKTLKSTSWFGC
# Excerpt: as §1
# Recombinant mouse MMP-12 (from R&D Systems, 3467-MP) is autocatalytically activated in accordance with the manufacturer's instructions. 1 μl of the test compound to be analysed (as a solution in DMSO, suitable concentrations, for example, 1 nM to 30 μM) is pipetted into 24 μl of activated enzyme (final concentration, for example, 1 nM) in reaction buffer (50 mM Tris/HCl pH 7.5, 10 mM CaCl2, 150 mM NaCl, 0.05% Brij®-35) in a white 384-hole microtiter plate (MTP). The enzymatic reaction is started by adding the intramolecularly quenched Mca-Lys-Pro-Leu-Gly-Leu-Dpa(Dnp)-Ala-Arg-NH2 substrate (final concentration, for example, 5 μM; R&D Systems, ES-010), so as to result in a total test volume of 50 The course of the MMP-12 reaction is measured by measuring the fluorescence intensity (excitation 320 nm, emission 410 nm) over a suitable period of time (for example over 120 min at a temperature of 32° C.).
# In this case, an enzyme concentration ten times lower is used (final concentration, for example, 0.1 nM) in order to achieve an elevated test sensitivity. The incubation period chosen for the test is correspondingly longer (for example 16 hours).
Compound,IC50 (MMP-13),IC50 (MMP-14),IC50 (MMP-16),IC50 (mouse MMP-9),IC50 (mouse MMP-12)
"Cc1ccc2nnn(C[C@@H]3CC[C@H](C(=O)c4ccc(OCc5cccc(Cl)c5)cc4)[C@H]3C(=O)O)c(=O)c2c1 (racemic) [Example 103, (+/−)-(1RS,2RS,5SR)-2-{4-[(3-Chlorobenzyl)oxy]benzoyl}-5-[(6-methyl-4-oxo-1,2,3-benzotriazin-3(4H)-yl)methyl]cyclopentanecarboxylic acid]",250 nM,320 nM,14000 nM,550 nM,2.3 nM
"(+)-(1RS,2SR,5RS)-2-{[4-Oxo-6-(trifluoromethyl)-1,2,3-benzotriazin-3(4H)-yl]methyl}-5-{4-[(2-phenylethy)sulphanyl]benzoyl}cyclopentanecarboxylic acid [Example 83]",2800 nM,3900 nM,> 40000 nM,> 40000 nM,5.7 nM
"O=C(O)[C@@H]1[C@@H](Cn2nnc3ccc(C(F)(F)F)cc3c2=O)CC[C@H]1C(=O)c1ccc(SCc2ccccc2)cc1 (single isomer, unassigned) [Example 75, (+)-(1RS,2RS,5SR)-2-[4-(Benzylsulphanyl)benzoyl]-5-{[4-oxo-6-(trifluoromethyl)-1,2,3-benzotriazin-3(4H)-yl]methyl}cyclopentanecarboxylic acid]",2300 nM,1900 nM,3600 nM,2700 nM,2.3 nM
"Cc1ccc2nnn(C[C@H]3CC[C@@H](C(=O)c4ccc(OCc5cccc(OC(F)(F)F)c5)cc4)[C@@H]3C(=O)O)c(=O)c2c1 (single isomer, unassigned) [Example 110, (+)-(1RS,2SR,5RS)-2-[(6-Methyl-4-oxo-1,2,3-benzotriazin-3(4H)-yl)methyl]-5-(4-{[3-(trifluoromethoxy)benzyl]oxy}benzoyl)cyclopentanecarboxylic acid]",260 nM,720 nM,2100 nM,1100 nM,0.72 nM
"Cc1ccc2nnn(C[C@H]3CC[C@@H](C(=O)c4ccc(OCc5cccc(C(F)(F)F)c5)cc4)[C@@H]3C(=O)O)c(=O)c2c1 (single isomer, unassigned) [Example 101, (+)-(1RS,2SR,5RS)-2-[(6-Methyl-4-oxo-1,2,3-benzotriazin-3(4H)-yl)methyl]-5-(4-{[3-(trifluoromethyl)benzyl]oxy}benzoyl)cyclopentanecarboxylic acid]",210 nM,380 nM,880 nM,400 nM,1.1 nM
"Cc1ccc2nnn(C[C@@H]3CC[C@H](C(=O)c4ccc(OCc5ccccc5)cc4)[C@H]3C(=O)O)c(=O)c2c1 (racemic) [Example 91, (+/−)-(1RS,2RS,5SR)-2-[4-(Benzyloxy)benzoyl]-5-[(6-methyl-4-oxo-1,2,3-benzotriazin-3(4H)-yl)methyl]cyclopentanecarboxylic acid]",50 nM,68 nM,1700 nM,72 nM,0.86 nM
"O=C(O)[C@H]1[C@H](Cn2nnc3ccc(C(F)(F)F)cc3c2=O)CC[C@@H]1C(=O)c1ccc(OCCCc2ccccc2)cc1 (racemic) [Example 39, (+/−)-(1RS,2SR,5RS)-2-{[4-Oxo-6-(trifluoromethyl)-1,2,3-benzotriazin-3(4H)-yl]methyl}-5-[4-(3-phenylpropoxy)benzoyl]cyclopentanecarboxylic acid]",1600 nM,6400 nM,14000 nM,> 40000 nM,11 nM
"COC(=O)Nc1cccc(COc2ccc(C(=O)[C@@H]3CC[C@H](Cn4nnc5ccc(C(F)(F)F)cc5c4=O)[C@H]3C(=O)O)cc2)c1 (stereo in doubt) [Example 31, (+)-(1RS,2RS,5SR)-2-[4-({3-[(Methoxycarbonyl)amino]benzyl}oxy)benzoyl]-5-{[4-oxo-6-(trifluoromethyl)-1,2,3-benzotriazin-3(4H)-yl]methyl}cyclopentanecarboxylic acid]",190 nM,400 nM,890 nM,4300 nM,6.4 nM
